In PubChem BioAssay AID588671 (Sanford-Burnham Center for Chemical Genomics, 2011):
The source made the active and inactive calls.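 The calls were made as follows: active = IC50 at or below 20 µM; inactive = the rest.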

Molecular target: glucose-6-phosphate dehydrogenase-6-phosphogluconolactonase (PfGluPho), Plasmodium falciparum 3D7
Assay: PfG6PD enzyme inhibitors, SAR follow-up, biochemical, fluorescence intensity, set 2 (AID 588671)
Details: recombinant PfGluPho, diaphorase-resazurin NADPH fluorescence

Row | SMILES | IC50
1 | O=C1Nc2cc(C(=O)NCCN3CCOCC3)ccc2S/C1=C\c1ccccc1F | > 80 µM (inactive)
2 | CN(C)CCNC(=O)c1ccc2c(c1)NC(=O)CO2 | > 80 µM (inactive)
3 | O=C1Nc2cc(C(=O)NCc3ccccc3)ccc2S/C1=C\c1ccccc1F | > 80 µM (inactive)
4 | CCN1CCCC1CNC(=O)c1ccc2c(c1)NC(=O)/C(=C/c1ccccc1C)S2 (configuration not stated) | 5.93 µM
5 | CCN1CCC[C@@H]1CNC(=O)c1ccc2c(c1)NC(=O)/C(=C/c1ccccc1F)S2 | 1.19 µM
6 | O=C(NCCN1CCCC1)c1ccc2c(c1)NC(=O)c1ccccc1O2 | inactive
7 | CN(C)CCNC(=O)c1ccc2c(c1)NC(=O)c1ccccc1O2 | > 80 µM (inactive)
8 | O=C(NCCN1CCCC1)c1ccc2c(c1)NC(=O)c1ccccc1S2 | inactive
9 | O=C(NCCN1CCOCC1)c1ccc2c(c1)NC(=O)c1ccccc1O2 | > 80 µM (inactive)
10 | O=C1COc2ccc(C(=O)NCCN3CCCC3)cc2N1 | > 80 µM (inactive)
11 | CN1CCCC1CCNC(=O)c1ccc2c(c1)NC(=O)/C(=C/c1ccccc1F)S2 (configuration not stated) | inactive
12 | CCN1CCC[C@H]1CNC(=O)c1ccc2c(c1)NC(=O)/C(=C/c1ccccc1F)S2 | 4.79 µM
13 | CCN1CCCC1CNC(=O)c1ccc2c(c1)NC(=O)CO2 (configuration not stated) | > 80 µM (inactive)
14 | CCN1CCCC1CNC(=O)c1ccc2c(c1)NC(=O)CS2 (configuration not stated) | > 80 µM (inactive)
15 | O=C1COc2ccc(C(=O)NCCN3CCCCC3)cc2N1 | > 80 µM (inactive)
16 | CCN1CCCC1CNC(=O)c1ccc2c(c1)NC(=O)/C(=C/c1cccc3ccccc13)S2 (configuration not stated) | 4.28 µM
17 | CCN1CCCC1CNC(=O)c1ccc2c(c1)NC(=O)c1ccccc1S2 (configuration not stated) | 9.89 µM
18 | O=C1COc2ccc(C(=O)NCCN3CCOCC3)cc2N1 | > 80 µM (inactive)
19 | O=C(NCCN1CCCCC1)c1ccc2c(c1)NC(=O)c1ccccc1O2 | inactive
20 | CCN1CCCC1CNC(=O)c1ccc2c(c1)NC(=O)/C(=C/c1ccccc1OC)S2 (configuration not stated) | 9.79 µM
21 | CN1CCN(C(=O)c2ccc3c(c2)NC(=O)/C(=C/c2ccccc2Cl)S3)CC1 | > 80 µM (inactive)
22 | CCN(CC)CCNC(=O)c1ccc2c(c1)NC(=O)CO2 | > 80 µM (inactive)
23 | CCN(CC)CCNC(=O)c1ccc2c(c1)NC(=O)c1ccccc1S2 | inactive
24 | CCN(CC)CCNC(=O)c1ccc2c(c1)NC(=O)c1ccccc1O2 | inactive
25 | O=C1Nc2cc(C(=O)NCCN3CCCCC3)ccc2S/C1=C\c1ccccc1F | inactive
26 | CCN1CCCC1CNC(=O)c1ccc2c(c1)NC(=O)c1ccccc1O2 (configuration not stated) | inactive
27 | CCN1CCCC1CNC(=O)c1ccc2c(c1)NC(=O)/C(=C/c1ccccc1F)S2 (configuration not stated) | 1.71 µM
